From US10221163B2 (priority 2015, dated 2019)
Read-outs that look alike come from different tables or passages of the source.

Tests used:
[1] = test system: Pseudomonas aeruginosa efflux− (MB9799), IMP-1; format: cell-based; details: C, D serine β-lactamase inhibitor closely related to relebactam; for P. aeruginosa expressing IMP-1, efflux − (MB9799) MITC95: concentration restoring susceptibility to imipenem at 2 μg/mL in the presence of a class A; for Concentration of metallo-β-lactamase inhibitor which restores susceptibility of efflux − (MB9799) strain to imipenem: imipenem at 2 μg/mL, in the presence of a class A
How it was run: (§1)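 PAO1 pair, broth microdilution; fixed β-lactam (imipenem/ceftazidime) at ~CLSI breakpoint + fixed class A/C BLI for AmpC; serial MBLi titration; endpoint = MBLi conc. restoring susceptibility; MB9798:MB9799 ratio = efflux liability.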

[2] = test system: Pseudomonas aeruginosa MB9798 vs MB9799
Source text: The strain background was Pseudomonas aeruginosa PAO1.
The strain set was then used as a pair to determine the effect of metallo-β-lactamase inhibitors of Formula I on the MIC of imipenem and/or ceftazidime. A fixed concentration of antibiotic was included in standard microbroth MIC tests, usually at the CLSI (Clinical and Laboratory Standards Institute) breakpoint concentration. A fixed amount of a class A/C beta-lactamase inhibitor was also included to inhibit the resident Pseudomonas AmpC enzyme. A serial titration of the metallo-β-lactamase inhibitor was included and the concentration of metallo-β-lactamase inhibitor which restores susceptibility of the strain to the included antibiotic was recorded. That concentration of metallo-β-lactamase inhibitor was then compared between the two strains to determine the fold difference between the efflux+ (MB9798) and efflux− (MB9799) strains. This was taken as an indication of the extent to which the MBLi is subject to efflux.

[3] = test system: Serratia marcescens expressing IMP-1 (CL5741); format: cell-based; details: for Serratia marcescens expressing IMP-1 (CL5741) MITC95: with imipenem 1 μg/ml, 95% inhibition of bacterial growth; for Serratia marcescens MITC95: IMP-1 strain CL5741, with imipenem 1 μg/ml, 95% inhibition of growth
How it was run: (§2)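 Colonies grown overnight on blood agar at 35° C were suspended in saline, diluted 1:100 into 1.1×CAMHB and dispensed. Imipenem was added to 1 μg/ml, then test compound. After 22 hours to 24 hours at 35° C, absorbance was recorded.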

[4] = test system: Escherichia coli expressing NDM-1 (CLB30005, CLB30016); format: cell-based; details: with imipenem 1 μg/ml; for Escherichia coli expressing NDM-1 (CLB30016) MITC95: 95% inhibition of bacterial growth; for Escherichia coli MITC95: NDM-1 strain, 95% inhibition of growth
How it was run: as §2

[5] = test system: Klebsiella pneumoniae expressing VIM-1 (IHMA599644); format: cell-based; details: for Klebsiella pneumoniae expressing VIM-1 (IHMA599644) MITC95: with imipenem 1 μg/ml, 95% inhibition of bacterial growth; for Klebsiella pneumoniae MITC95: VIM-1 strain IHMA599644, with imipenem 1 μg/ml, 95% inhibition of growth
How it was run: as §2

[6] = test system: Pseudomonas aeruginosa efflux+ (MB9798), IMP-1; format: cell-based; parameters: Concentration of metallo-β-lactamase inhibitor which restores susceptibility of efflux + (MB9798) strain to imipenem: unit not given here; details: C, D serine β-lactamase inhibitor closely related to relebactam; for P. aeruginosa expressing IMP-1, efflux + (MB9798) MITC95: concentration restoring susceptibility to imipenem at 2 μg/mL in the presence of a class A; for Concentration of metallo-β-lactamase inhibitor which restores susceptibility of efflux + (MB9798) strain to imipenem: imipenem at 2 μg/mL, in the presence of a class A
How it was run: as §1

VIM-1 = VIM-1 (Pseudomonas aeruginosa (strain ATCC 15692 / DSM 22644 / CIP 104116 / JCM 14847 / LMG 12228 / 1C / PRS 101 / PAO1), UniProt A0A0F7KYQ8); assay: biochemical; details: CCF2-FA substrate, 30 pM enzyme, 2 hours at 25° C.
Protocol: Enzyme Activity: Determination of IC50
The Class B enzyme activities were measured in the presence of the test inhibitor in a fluorescence assay against a commercially available substrate consisting of a cephalosporin core linking 7-hydroxycoumarin to fluorescein (CCF2-FA). […] In a 384-well microplate, the test inhibitor was incubated with the metallo-β-lactamase enzyme and the substrate for 2 hours at 25° C. […] The IC50 value was determined from semi-logarithmic plots of enzyme inhibition versus inhibitor concentration, with a curve generated using a 4-parameter fit.

NDM-1 = NDM-1 (Klebsiella pneumoniae, UniProt C7C422); assay: biochemical; format: biochemical; details: fluorescence assay, CCF2-FA substrate, 1 pM enzyme, 2 hours at 25° C.; read-out: NDM-1 IC50
How it was run: (§3)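 Inhibitor was mixed with the metallo-β-lactamase and CCF2-FA. After 2 hours at 25° C, fluorescence of the coumarin–fluorescein cephalosporin substrate was read. IC50 was calculated with a 4-parameter fit.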

IMP-1 = IMP-1 (Serratia marcescens, UniProt P52699); assay: biochemical; format: biochemical; details: fluorescence assay, CCF2-FA substrate, 2 pM enzyme, 2 hours at 25° C.; read-out: IMP-1 IC50
How it was run: as §3

[7] = ratio MITC95 PA_9798/MITC95 PA_9799
[8] = fluorescence assay, read-out: VIM-1 IC50

Chain of IMP-1 (P52699 whole entry, looked up, species assumed): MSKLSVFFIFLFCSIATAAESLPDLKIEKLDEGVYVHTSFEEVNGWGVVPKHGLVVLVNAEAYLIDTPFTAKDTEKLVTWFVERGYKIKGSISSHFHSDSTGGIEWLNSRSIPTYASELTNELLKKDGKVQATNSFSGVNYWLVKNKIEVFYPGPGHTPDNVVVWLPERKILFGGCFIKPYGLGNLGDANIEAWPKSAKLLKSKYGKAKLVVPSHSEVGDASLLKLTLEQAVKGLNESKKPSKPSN
Chain of NDM-1 (C7C422 whole entry, looked up, species assumed): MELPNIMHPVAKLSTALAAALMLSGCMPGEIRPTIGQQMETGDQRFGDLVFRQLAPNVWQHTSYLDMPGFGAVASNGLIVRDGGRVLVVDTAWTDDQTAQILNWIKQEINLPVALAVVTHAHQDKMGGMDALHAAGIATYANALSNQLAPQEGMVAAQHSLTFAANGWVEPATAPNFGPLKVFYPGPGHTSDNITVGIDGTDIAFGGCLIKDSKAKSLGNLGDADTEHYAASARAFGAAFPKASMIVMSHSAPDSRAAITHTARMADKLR

| Structure (SMILES) | P. aeruginosa expressing IMP-1, efflux − (MB9799) MITC95 [1] | Efflux ratio [2, 7] | Serratia marcescens expressing IMP-1 (CL5741) MITC95 [3] | Escherichia coli expressing NDM-1 (CLB30016) MITC95 [4] | Klebsiella pneumoniae expressing VIM-1 (IHMA599644) MITC95 [5] | P. aeruginosa expressing IMP-1, efflux + (MB9798) MITC95 [6] | IC50 (VIM-1; [8]) | IC50 (NDM-1) | IC50 (IMP-1) | Serratia marcescens MITC95 [3] | Escherichia coli MITC95 [4] | Klebsiella pneumoniae MITC95 [5] | Concentration of metallo-β-lactamase inhibitor which restores susceptibility of efflux − (MB9799) strain to imipenem [1] | Concentration of metallo-β-lactamase inhibitor which restores susceptibility of efflux + (MB9798) strain to imipenem [6] | Efflux ratio ([2]; fold difference between efflux+ (MB9798) and efflux− (MB9799) strains, imipenem at 2 μg/mL) | IC50 (VIM-1; VIM-1 IC50, fluorescence assay) |
| --- | --- | --- | --- | --- | --- | --- | --- | --- | --- | --- | --- | --- | --- | --- | --- | --- |
| NCCNS(=O)(=O)c1ccc(-c2cccc3oc(N)nc23)c(-c2nn[nH]n2)c1S(N)(=O)=O [Example 11, 4-(2-aminobenzo[d]oxazol-4-yl)-N^1-(2-aminoethyl)-3-(2H-tetrazol-5-yl)benzene-1,2-disulfonamide] | 0.3906 µM | 1.00 | 0.7813 µM | 0.7813 µM | 1.563 µM | 0.3906 µM | 0.0502 nM |  |  |  |  |  |  |  |  |  |
| Nc1nc2c(-c3ccc(S(=O)(=O)N[C@@H](N)c4ccccn4)c(S(N)(=O)=O)c3-c3nnn[nH]3)cccc2s1.O=C(O)C(F)(F)F [Example 99, (R)-(4-(2-aminobenzo[d]thiazol-4-yl)-2-sulfamoyl-3-(1H-tetrazol-5-yl)phenylsulfonamido)(pyridin-2-yl)methanaminium 2,2,2-trifluoroacetate] | 3.125 µM | 8.00 | 6.25 µM | 12.5 µM | 25 µM | 25 µM | 0.499 nM |  |  |  |  |  |  |  |  |  |
| Nc1nc2c(-c3ccc(S(=O)(=O)NC4C[C@@H]5CN[C@H]4C5)c(S(N)(=O)=O)c3-c3nnn[nH]3)cccc2s1.O=CO (some centres unmarked) [Example 119] | 1.563 µM | 0.50 | 1.563 µM | 1.563 µM | 3.125 µM | 0.7813 µM |  |  |  |  |  |  |  |  |  |  |
| C[C@H](CN)NS(=O)(=O)c1ccc(-c2cccnc2N)c(-c2nn[nH]n2)c1S(N)(=O)=O [Example 212, (R)-N1-(1-amino-propan-2-yl)-4-(2-aminopyridin-3-yl)-3-(2H-tetrazol-5-yl)benzene-1,2-disulfonamide] | 1.563 µM | 1.00 | 0.7813 µM | 0.3906 µM | 1.563 µM | 1.563 µM | 0.154 nM |  |  |  |  |  |  |  |  |  |
| C[N+]1(C)CC[C@@H](NS(=O)(=O)c2ccc(-c3cccc4[nH]c(N)nc34)c(-c3nn[nH]n3)c2S(N)(=O)=O)C1.[Cl-] [Example 233, (R)-3-((4-(2-amino-1H-benzo[d]imidazol-4-yl)-2-sulfamoyl-3-(2H-tetrazol-5-yl)phenyl)sulfonamido)-1,1-dimethylpyrrolidin-1-ium chloride] | 1.563 µM | 1.00 | 0.3906 µM | 0.3906 µM | 1.563 µM | 1.563 µM |  | 0.0225 nM | 0.305 nM |  |  |  |  |  |  |  |
| C[N+]1(CCN)CC[C@H](NS(=O)(=O)c2ccc(-c3cccc4[nH]c(N)nc34)c(-c3nn[nH]n3)c2S(N)(=O)=O)C1.O=C([O-])O (stereo partly drawn) [Example 249, (3S)-3-{[4-(2-amino-1H-1,3-benzodiazol-4-yl)-2-sulfamoyl-3-(2H-1,2,3,4-tetrazol-5-yl)benzene]sulfonamido}-1-(2-aminoethyl)-1-methylpyrrolidin-1-ium methaneperoxoate] | 0.7813 µM | 1.00 |  |  |  | 0.7813 µM |  | 0.0153 nM | 0.342 nM | 1.563 µM | 0.3906 µM | 1.563 µM |  |  |  |  |
| Nc1ccc(-c2ccc(S(=O)(=O)N[C@H]3CNC[C@H]3N)c(S(N)(=O)=O)c2-c2nn[nH]n2)cn1 [Example 413] |  |  |  |  |  |  | 0.3 nM | 0.248 nM | 0.8 nM | 1.563 µM | 0.7813 µM | 3.125 µM | 1.563 | 1.563 |  |  |
| Nc1ccc(-c2ccc(S(=O)(=O)N[C@@H]3CNC[C@@H]3N)c(S(N)(=O)=O)c2-c2nn[nH]n2)cn1 [Example 414] |  |  |  |  |  |  | 0.347 nM | 0.329 nM | 0.786 nM | 0.7813 µM | 0.3906 µM | 3.125 µM | 1.563 | 1.563 |  |  |
| NCc1sc(N)nc1-c1cccc(-c2ccc(S(=O)(=O)N[C@@H]3CCNC3)c(S(N)(=O)=O)c2-c2nnn[nH]2)c1 [Example 432] |  |  |  |  |  |  |  |  |  | 0.7813 µM | 0.7813 µM | 1.563 µM | 0.7813 | 0.7813 | 1.00 | 0.387 nM |
| C[C@H](N)Cc1nc2c(-c3ccc(S(=O)(=O)N[C@@H]4CCNC4)c(S(N)(=O)=O)c3-c3nn[nH]n3)cccc2[nH]1 [Example 441, 4-(2-((S)-2-Aminopropyl)-1H-benzo[d]imidazol-4-yl)-N1-((R)-pyrrolidin-3-yl)-3-(2H-tetrazol-5-yl)benzene-1,2-disulfonamide] |  |  |  |  |  |  | 0.15 nM | 0.0811 nM | 1.23 nM | 1.563 µM | 1.563 µM | 1.563 µM | 0.7813 | 1.563 |  |  |
